Laboratory results taken from US10428044B2, “3-amino-1,5,6,7-tetrahydro-4H-indol-4-ones” (Bayer Pharma Aktiengesellschaft, priority 2014, dated 2019).

What follows are molecules tested against (recombinant) catalytic domain of human Bub1 (amino acids 704-1085) (Homo sapiens (Human), UniProt O43683) (assay: Bub1 kinase assay (TR-FRET)). Settings: ATP 10 μM final, peptide substrate 1 μM final, 60 min at 22° C., read-out: Biological Assay: Bub1 kinase assay median IC50.
(recombinant) catalytic domain of human Bub1 (amino acids 704-1085), sequence (O43683 704-1085): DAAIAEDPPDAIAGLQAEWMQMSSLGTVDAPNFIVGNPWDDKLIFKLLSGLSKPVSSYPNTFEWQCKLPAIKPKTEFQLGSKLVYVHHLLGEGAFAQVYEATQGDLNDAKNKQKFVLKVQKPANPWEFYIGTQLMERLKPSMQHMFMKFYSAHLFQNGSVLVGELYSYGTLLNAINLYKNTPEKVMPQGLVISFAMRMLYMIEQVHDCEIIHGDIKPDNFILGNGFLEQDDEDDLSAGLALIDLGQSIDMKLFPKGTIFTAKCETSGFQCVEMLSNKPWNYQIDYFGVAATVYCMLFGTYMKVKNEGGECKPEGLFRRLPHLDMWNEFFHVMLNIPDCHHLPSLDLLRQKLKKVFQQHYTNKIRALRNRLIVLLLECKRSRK
Type: biochemical
Outline: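 Compounds were serially diluted 1:3.4 from 2 mM DMSO stocks and incubated with the enzyme reaction for 60 min at 22° C. The reaction was stopped with EDTA, and biotinylated peptide phosphorylation was read by TR-FRET using Eu anti-mouse IgG, anti-phosphoserine antibody and streptavidin-XL665. IC50 was fitted by 4-parameter logistic to inhibition normalized to no-inhibitor and no-enzyme controls.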
Work on C#CCOCC(=O)Nc1cc(-c2[nH]c3c(c2Nc2ccccc2)C(=O)CCC3)ccn1 [Example 336, N-{4-[4-oxo-3-(phenylamino)-4,5,6,7-tetrahydro-1H-indol-2-yl]pyridin-2-yl}-2-(prop-2-yn-1-yloxy)acetamide] yielded an IC50 of 8.53 nM. Molecule O=C(COc1ccccc1)Nc1cc(-c2[nH]c3c(c2Nc2ccccc2)C(=O)CCC3)ccn1 [Example 337, N-{4-[4-oxo-3-(phenylamino)-4,5,6,7-tetrahydro-1H-indol-2-yl]pyridin-2-yl}-2-phenoxyacetamide] has an IC50 of 22.9 nM. O=C(COc1cccc(F)c1)Nc1cc(-c2[nH]c3c(c2Nc2ccccc2)C(=O)CCC3)ccn1 [Example 338, 2-(3-fluorophenoxy)-N-{4-[4-oxo-3-(phenylamino)-4,5,6,7-tetrahydro-1H-indol-2-yl]pyridin-2-yl}acetamide] gave an IC50 of 31.6 nM. In the case of O=C(COc1ccccc1F)Nc1cc(-c2[nH]c3c(c2Nc2ccccc2)C(=O)CCC3)ccn1 [Example 339, 2-(2-fluorophenoxy)-N-{4-[4-oxo-3-(phenylamino)-4,5,6,7-tetrahydro-1H-indol-2-yl]pyridin-2-yl}acetamide], the IC50 is reported as 39.4 nM. O=C(COCc1ccccc1)Nc1cc(-c2[nH]c3c(c2Nc2ccccc2)C(=O)CCC3)ccn1 [Example 340, 2-(benzyloxy)-N-{4-[4-oxo-3-(phenylamino)-4,5,6,7-tetrahydro-1H-indol-2-yl]pyridin-2-yl}acetamide] showed an IC50 of 7.25 nM. O=C(COCc1ccc(F)cc1)Nc1cc(-c2[nH]c3c(c2Nc2ccccc2)C(=O)CCC3)ccn1 [Example 341, 2-[(4-fluorobenzyl)oxy]-N-{4-[4-oxo-3-(phenylamino)-4,5,6,7-tetrahydro-1H-indol-2-yl]pyridin-2-yl}acetamide] was tested, and the IC50 was 7.89 nM. COc1ccc(COCC(=O)Nc2cc(-c3[nH]c4c(c3Nc3ccccc3)C(=O)CCC4)ccn2)cc1 [Example 342, 2-[(4-methoxybenzyl)oxy]-N-{4-[4-oxo-3-(phenylamino)-4,5,6,7-tetrahydro-1H-indol-2-yl]pyridin-2-yl}acetamide] gave an IC50 of 7.12 nM. With O=C(COC[C@@H]1CCCCO1)Nc1cc(-c2[nH]c3c(c2Nc2ccccc2)C(=O)CCC3)ccn1 [Example 343, N-{4-[4-oxo-3-(phenylamino)-4,5,6,7-tetrahydro-1H-indol-2-yl]pyridin-2-yl}-2-[(2S)-tetrahydro-2H-pyran-2-ylmethoxy]acetamide] the IC50 was 8.45 nM. With O=C(COc1ccsc1)Nc1cc(-c2[nH]c3c(c2Nc2ccccc2)C(=O)CCC3)ccn1 [Example 344, N-{4-[4-oxo-3-(phenylamino)-4,5,6,7-tetrahydro-1H-indol-2-yl]pyridin-2-yl}-2-(thiophen-3-yloxy)acetamide] the IC50 was 19.8 nM. Molecule O=C(COc1ccsc1Cl)Nc1cc(-c2[nH]c3c(c2Nc2ccccc2)C(=O)CCC3)ccn1 [Example 345, 2-[(2-chlorothiophen-3-yl)oxy]-N-{4-[4-oxo-3-(phenylamino)-4,5,6,7-tetrahydro-1H-indol-2-yl]pyridin-2-yl}acetamide] has an IC50 of 72.5 nM. Molecule Cc1cc(OCC(=O)Nc2cc(-c3[nH]c4c(c3Nc3ccccc3)C(=O)CCC4)ccn2)no1 [Example 346, 2-[(5-methyl-1,2-oxazol-3-yl)oxy]-N-{4-[4-oxo-3-(phenylamino)-4,5,6,7-tetrahydro-1H-indol-2-yl]pyridin-2-yl}acetamide] has an IC50 of 9.88 nM. Molecule O=C(COc1ccccn1)Nc1cc(-c2[nH]c3c(c2Nc2ccccc2)C(=O)CCC3)ccn1 [Example 347, N-{4-[4-oxo-3-(phenylamino)-4,5,6,7-tetrahydro-1H-indol-2-yl]pyridin-2-yl}-2-(pyridin-2-yloxy)acetamide] has an IC50 of 101 nM. Molecule O=C(COc1ccon1)Nc1cc(-c2[nH]c3c(c2Nc2ccccc2)C(=O)CCC3)ccn1 [Example 348, 2-(1,2-oxazol-3-yloxy)-N-{4-[4-oxo-3-(phenylamino)-4,5,6,7-tetrahydro-1H-indol-2-yl]pyridin-2-yl}acetamide] has an IC50 of 10.2 nM. Work on Cc1noc(COCC(=O)Nc2cc(-c3[nH]c4c(c3Nc3ccccc3)C(=O)CCC4)ccn2)n1 [Example 349, 2-[(3-methyl-1,2,4-oxadiazol-5-yl)methoxy]-N-{4-[4-oxo-3-(phenylamino)-4,5,6,7-tetrahydro-1H-indol-2-yl]pyridin-2-yl}acetamide] yielded an IC50 of 8.19 nM. With Cc1cc(COCC(=O)Nc2cc(-c3[nH]c4c(c3Nc3ccccc3)C(=O)CCC4)ccn2)on1 [Example 350, 2-[(3-methyl-1,2-oxazol-5-yl)methoxy]-N-{4-[4-oxo-3-(phenylamino)-4,5,6,7-tetrahydro-1H-indol-2-yl]pyridin-2-yl}acetamide] the IC50 was 6.53 nM. Cn1nccc1COCC(=O)Nc1cc(-c2[nH]c3c(c2Nc2ccccc2)C(=O)CCC3)ccn1 [Example 351, 2-[(1-methyl-1H-pyrazol-5-yl)methoxy]-N-{4-[4-oxo-3-(phenylamino)-4,5,6,7-tetrahydro-1H-indol-2-yl]pyridin-2-yl}acetamide] was tested, and the IC50 was 6.22 nM. Molecule O=C(COCc1ccco1)Nc1cc(-c2[nH]c3c(c2Nc2ccccc2)C(=O)CCC3)ccn1 [Example 352, 2-(furan-2-ylmethoxy)-N-{4-[4-oxo-3-(phenylamino)-4,5,6,7-tetrahydro-1H-indol-2-yl]pyridin-2-yl}acetamide] has an IC50 of 6.68 nM. Cc1nnc(COCC(=O)Nc2cc(-c3[nH]c4c(c3Nc3ccccc3)C(=O)CCC4)ccn2)o1 [Example 353, 2-[(5-methyl-1,3,4-oxadiazol-2-yl)methoxy]-N-{4-[4-oxo-3-(phenylamino)-4,5,6,7-tetrahydro-1H-indol-2-yl]pyridin-2-yl}acetamide] showed an IC50 of 14.4 nM. In the case of Cc1cc(COCC(=O)Nc2cc(-c3[nH]c4c(c3Nc3ccccc3)C(=O)CCC4)ccn2)no1 [Example 354, 2-[(5-methyl-1,2-oxazol-3-yl)methoxy]-N-{4-[4-oxo-3-(phenylamino)-4,5,6,7-tetrahydro-1H-indol-2-yl]pyridin-2-yl}acetamide], the IC50 is reported as 6.57 nM. Cc1cnc(COCC(=O)Nc2cc(-c3[nH]c4c(c3Nc3ccccc3)C(=O)CCC4)ccn2)o1 [Example 355, 2-[(5-methyl-1,3-oxazol-2-yl)methoxy]-N-{4-[4-oxo-3-(phenylamino)-4,5,6,7-tetrahydro-1H-indol-2-yl]pyridin-2-yl}acetamide] was tested, and the IC50 was 6.45 nM. Molecule Cc1nnc(COCC(=O)Nc2cc(-c3[nH]c4c(c3Nc3ccccc3)C(=O)CCC4)ccn2)s1 [Example 356, 2-[(5-methyl-1,3,4-thiadiazol-2-yl)methoxy]-N-{4-[4-oxo-3-(phenylamino)-4,5,6,7-tetrahydro-1H-indol-2-yl]pyridin-2-yl}acetamide] has an IC50 of 7.91 nM. Work on CC(=O)Nc1cc(-c2[nH]c3c(c2Nc2ccccc2)C(=O)CC(C)(C)C3)ncn1 [Example 357, N-{6-[6,6-dimethyl-4-oxo-3-(phenylamino)-4,5,6,7-tetrahydro-1H-indol-2-yl]pyrimidin-4-yl}acetamide] yielded an IC50 of 3080 nM. Work on CNc1cc(-c2[nH]c3c(c2Nc2ccccc2)C(=O)CCC3)ccn1 [Example 358, 2-[2-(methylamino)pyridin-4-yl]-3-(phenylamino)-1,5,6,7-tetrahydro-4H-indol-4-one] yielded an IC50 of 1130 nM. CC1(C)CC(=O)c2c([nH]c(-c3ccnc(NC4CCC4)c3)c2Nc2ccccc2)C1 [Example 359, 2-[2-(cyclobutylamino)pyridin-4-yl]-6,6-dimethyl-3-(phenylamino)-1,5,6,7-tetrahydro-4H-indol-4-one] was tested, and the IC50 was 208 nM.
